Results from patent US6342633B1, “O-benzyl oxime ether derivatives and their use as pesticides” (Bayer Aktiengesellschaft, priority 1993, dated 2002).

| SMILES | melting point |
| --- | --- |
| [H]/N=C(OC)/C(=N/OC)c1ccccc1CON=C(C)c1ccc(Cl)cc1 [Compound 1.13] | 73 to 75 °C |
| CNC(=S)/C(=N/OC)c1ccccc1CO/N=C(\C)c1cccc(C(F)(F)F)c1 [Compound 4.51, N-methyl-2-[2-(methyl(3-trifluoromethylphenyl)oximinomethyl)phenyl]-2-methoximinothioacetamide] | 100 to 106 °C |
| CNC(=S)/C(=N/OC)c1ccccc1CON=C(C)c1ccc(Cl)cc1 [Compound 4.10] | 88 to 89 °C |
| C/N=C(OC)/C(=N/OC)c1ccccc1CO/N=C(\C)c1ccc(Cl)cc1 [Example H-4, N,O-dimethyl-2-[2-(methyl(4-chlorophenyl)oximinomethyl)phenyl]2-methoximinoacetimidate] | 79 to 80 °C |
| CO/N=C(N)/C(=N/OC)c1ccccc1CO/N=C(\C)c1ccc(Cl)cc1 [Compound 3.101] | 76 to 78 °C |
